Values quoted from earlier work as cited in US6462088B1, “Disinfecting preparation containing chlorine in alcohol” (priority 1998, dated 2002).

Conditions: 25° C., aqueous solution; for E0 standard oxidation potential, Ref. b): Ullmann's Encyclopedia

Row | Compound | E0 standard oxidation potential, Ref. a) (Rice and Gomez-Taylor) | E0 standard oxidation potential, Ref. b)
1 | OCl [Hypochlorous acid] | 1.49 V | 1.50 V
2 | Hypochlorite ion |  | 0.90 V
